Reference: US20250289827A1, “MORPHIC FORMS OF A MUTANT BRAF DEGRADER AND METHODS OF MANUFACTURE THEREOF” (C4 THERAPEUTICS, INC., priority 2022, published 2025)
≈ marks a conversion by molar mass, not a printed value. Where “and” joins values, the source holds several entries; their conditions need not be identical. Equal entries are not always repeated.

Legend:
[1] = Crystallization by addition of anti-solvent; assay type: physicochemical
Procedure: About 50 mg of Compound 1 Form A was dissolved in the minimal amount of selected good solvents at ambient temperature (about 20-25° C.). Obtained solutions were filtered through a 0.45 μm syringe membrane filter. […] Precipitates were collected by centrifugation filtration through a 0.45 μm nylon membrane filter at 14,000 rpm. Solid parts (wet cakes) were investigated by XRPD.

[2] = Crystallization by vapor diffusion; assay type: physicochemical
Procedure: About 50 mg of Compound 1 Form A was dissolved in the minimal amount of selected solvents at ambient temperature (about 20-25° C.). Obtained solutions were filtered through a 0.45 μm syringe membrane filter. […] Then these 8 mL lid less vials were placed to 40 mL glass vials. To the 40 mL vials were added anti-solvents. Then these 40 mL vials were capped tightly and placed at ambient condition for up to 21 days. Precipitates were collected by centrifugation filtration through a 0.45 μm nylon membrane filter at 14,000 rpm. Solid parts (wet cakes) were investigated by XRPD.

[3] = Salt screening by anti-solvent addition; assay type: physicochemical; details: Choline; MeOH/0.2 mL, anti-solvent MTBE/0.3 mL
[4] = Compression simulation experiments; assay type: physicochemical; details: for Comments: color / Comments: crystallinity / XRPD: compressed 5 minutes
Procedure: About 20 mg of Compound 1 Form B was compressed for 5 minutes under 2 MPa and 10 MPa with a hydraulic press. Potential form change and degree of crystallinity were evaluated by XRPD.

[5] = Dry grinding simulation experiments; assay type: physicochemical
Procedure: About 20 mg of Compound 1 Form B was ground manually with a mortar and a pestle for 1, 2 and 5 min. Potential form change, and degree of crystallinity were evaluated by XRPD.

[6] = Wet granulation simulation experiments; assay type: physicochemical
Procedure: Water or ethanol was added drop wise to about 20 mg of Compound 1 Form B until the sample was wetted sufficiently. Wet sample was ground gently with in a mortar and a pestle. Post granulation sample was dried under ambient condition for 10 min. Potential form change and degree of crystallinity were evaluated by XRPD.

[7] = Stability study for Compound 1 Form B (storage conditions); assay type: physicochemical
[8] = Bulk stability of Compound 1 Form B (1 week stress); assay type: physicochemical
[9] = Solubility data for Compound 1 drug substance; assay type: physicochemical
[10] = tested on: HT-29 human colorectal cancer cell derived xenografts (CDX); test: Efficacy in HT-29 CDX model of colorectal cancer; assay type: in vivo, BALB/c nude mice
Text: The endpoint for each individual mouse was reached when the mouse weight decreased by 20%.

[11] = Acetone (3) / anti-solvent Heptane (2) mL
[12] = 25° C. ± 2° C./60% RH ± 5% RH, 3 M
[13] = 25° C. ± 2° C./60% RH ± 5% RH, 6 M
[14] = 40° C. ± 2° C./75% RH ± 5% RH, 3 M
[15] = 40° C. ± 2° C./75% RH ± 5% RH, 6 M
[16] = Solid state, photo (visible light, 1.2 million lux-hrs)

CCN(C)S(=O)(=O)Nc1ccc(F)c(Oc2ccc3ncn([C@H]4COC5(CCN(C(=O)CC6(O)CCN(c7cc8c(cc7F)c(N7CCC(=O)NC7=O)nn8C)CC6)CC5)C4)c(=O)c3c2)c1C#N [Compound 1 Form A]
Results (After 2 hours) ([1]; 1,4-Dioxane (0.1) / anti-solvent Water (0.2) mL): Sticky material | Results (After 2 hours) [1, 11]: Low crystallinity | XRPD [1, 11]: Form A | Results (After 2 hours) ([1]; DCM (0.2) / anti-solvent Heptane (0.2) mL): Sticky material | Results (After 2 hours) ([1]; THF (0.2) / anti-solvent Water (0.2) mL): Oil material | Results ([2]; 2-MeTHF (8.0) / MTBE (32.0) mL): Few solids | Results ([2]; Acetone (2.5) / MTBE (10.0) mL): Oil material | Results ([2]; Acetonitrile (3.0) / MTBE (12.0) mL): Oil material | Results ([2]; DMSO (0.2) / Ethanol (0.8) mL): Oil material | Notes [3]: Sticky material

CCN(C)S(=O)(=O)Nc1ccc(F)c(Oc2ccc3ncn([C@H]4COC5(CCN(C(=O)CC6(O)CCN(c7cc8c(cc7F)c(N7CCC(=O)NC7=O)nn8C)CC6)CC5)C4)c(=O)c3c2)c1C#N [Compound 1 Form B]
Morphic form stability under compression ([4]; 2 MPa and 10 MPa): excellent morphic form stability | Comments: color ([4]; 2 MPa): Slight discoloration. | Comments: crystallinity ([4]; 2 MPa): Slight decrease in crystallinity; | XRPD ([4]; 2 MPa): Form B | Comments: color ([4]; 10 MPa): Slight discoloration. | Comments: crystallinity ([4]; 10 MPa): Slight decrease in crystallinity; | XRPD ([4]; 10 MPa): Form B | Morphic form stability under dry grinding [5]: excellent morphic form stability | Comments ([5]; grinding time 1 min): Slight decrease in crystallinity. | XRPD ([5]; grinding time 1 min): Form B | Comments ([5]; grinding time 2 min): Slight decrease in crystallinity. | XRPD ([5]; grinding time 2 min): Form B | Comments ([5]; grinding time 5 min): Slight decrease in crystallinity. | XRPD ([5]; grinding time 5 min): Form B | XRPD after wet granulation ([6]; granulation solvent Ethanol): Form B; no crystallinity decrease. | XRPD after wet granulation ([6]; granulation solvent Water): Form B; no crystallinity decrease. | Crystallinity change after wet granulation ([6]; in the presence of water or ethanol): no changes in crystallinity | Appearance ([7]; 5 ± 3° C., 6 M): white solid | Assay by UPLC (% w/w) ([7]; 5 ± 3° C., 6 M): 97.7% w/w | Chiral purity by HPLC (% area) ([7]; 5 ± 3° C., 6 M): 99.9% area | Purity by UPLC (% area) ([7]; 5 ± 3° C., 6 M): 99.0% area | Related Substances, UPLC (% area), Total Impurities ([7]; 5 ± 3° C., 6 M): 1.0% area | Water Content by KF (% w/w) ([7]; 5 ± 3° C., 6 M): 1.2% w/w | XRPD ([7]; 5 ± 3° C., 6 M): Form B | Water content trend ([7]; 5±3° C., 25° C./60% RH, 40° C./75% RH): increasing trend | Stability study outcome (appearance, purity, assay, related substance, chiral purity, water content, XRPD) ([7]; 6M, 5±3° C., 25° C./60% RH, 40° C./75% RH): meet the acceptance criteria | Assay by UPLC (% w/w) [7, 12]: 97.2% w/w | Chiral purity by HPLC (% area) [7, 12]: 99.9% area | Purity by UPLC (% area) [7, 12]: 98.9 % area | Related Substances, UPLC (% area), Total Impurities [7, 12]: 1.1% area | Water Content by KF (% w/w) [7, 12]: 0.7% w/w | XRPD [7, 12]: Form B | Assay by UPLC (% w/w) [7, 13]: 97.8% w/w | Chiral purity by HPLC (% area) [7, 13]: 99.9% area | Purity by UPLC (% area) [7, 13]: 99.1 % area | Related Substances, UPLC (% area), Total Impurities [7, 13]: 0.90% area | Water Content by KF (% w/w) [7, 13]: 0.9% w/w | XRPD [7, 13]: Form B | Assay by UPLC (% w/w) [7, 14]: 92.2% w/w | Chiral purity by HPLC (% area) [7, 14]: 99.9% area | Purity by UPLC (% area) [7, 14]: 92.2% area | Related Substances, UPLC (% area), Total Impurities [7, 14]: 1.2% area | Water Content by KF (% w/w) [7, 14]: 0.9 % w/w | XRPD [7, 14]: Form B | Assay by UPLC (% w/w) [7, 15]: 92.5% w/w | Chiral purity by HPLC (% area) [7, 15]: 99.9% area | Purity by UPLC (% area) [7, 15]: 92.5% area | Related Substances, UPLC (% area), Total Impurities [7, 15]: 1.1% area | Water Content by KF (% w/w) [7, 15]: 1.0 % w/w | XRPD [7, 15]: Form B | Appearance ([7]; Initial): white solid | Assay by UPLC (% w/w) ([7]; Initial): 99.4% w/w and 97.3% w/w | Chiral purity by HPLC (% area) ([7]; Initial): 99.8% area | Purity by UPLC (% area) ([7]; Initial): 98.9% area and 97.3% area | Related Substances, UPLC (% area), Total Impurities ([7]; Initial): 1.1% area | Water Content by KF (% w/w) ([7]; Initial): 0.4% w/w | XRPD ([7]; Initial): Form B | Bulk (XRPD) crystallinity [8, 16]: Slight decrease in crystallinity | Color [8, 16]: No change of color | Purity, Bulk (HPLC) [8, 16]: 96.9% | Purity, Control (HPLC) ([8]; photo test, control sample): 99.4%

CCN(C)S(=O)(=O)Nc1ccc(F)c(Oc2ccc3ncn([C@H]4COC5(CCN(C(=O)CC6(O)CCN(c7cc8c(cc7F)c(N7CCC(=O)NC7=O)nn8C)CC6)CC5)C4)c(=O)c3c2)c1C#N [Compound 1, (3R)-3-[6-[2-cyano-3-[[ethyl(methyl)sulfamoyl]amino]-6-fluorophenoxy]-4-oxoquinazolin-3-yl]-8-[2-[1-[3-(2,4-dioxo-1,3-diazinan-1-yl)-5-fluoro-1-methylindazol-6-yl]-4-hydroxypiperidin-4-yl]acetyl]-1-oxa-8-azaspiro[4.5]decane]
solubility ([9]; FaSSIF, pH 6.48, fassif): 5840 µg/mL (≈ 6.1 mM) | solubility ([9]; FeSSIF, pH 4.86, fessif): 1350 µg/mL (≈ 1.41 mM) | solubility ([9]; SGF, pH 1.74, simulated gastric fluid): 6580 µg/mL (≈ 6.87 mM) | solubility ([9]; aqueous buffer, 50 mM pH 6.8 phosphate buffer solution, pH 6.76): 1530 µg/mL (≈ 1.6 mM) | solubility ([9]; aqueous buffer, 50 mM pH 7.4 phosphate buffer solution, pH 7.40): 8790 µg/mL (≈ 9.18 mM) | solubility ([9]; aqueous buffer, 100 mM pH 3.0 citrate buffer solution, pH 3.02): 2090 µg/mL (≈ 2.18 mM) | solubility ([9]; aqueous buffer, 100 mM pH 4.5 citrate buffer solution, pH 4.53): 3160 µg/mL (≈ 3.3 mM) | solubility ([9]; aqueous buffer, pH 9.0 NaOH solution, pH 8.55): 21600 µg/mL (≈ 22.5 mM) | solubility ([9]; pH 8.9, Purified water, pH 8.90): 42400 µg/mL (≈ 44.3 mM) | solubility ([9]; simulated gastric fluid, pH 1.2 HCl/KCl solution, pH 1.17): 23000 µg/mL (≈ 24 mM) | solubility ([9]; simulated gastric fluid, pH 2.0 HCl/KCl solution, pH 1.95): 4350 µg/mL (≈ 4.54 mM) | Tumor response at end of study ([10]; 10 mg/kg PO BID plus cetuximab 11 mg/kg IP Q3D): tumor regression | Tumor response at end of study ([10]; 10 mg/kg PO BID, without cetuximab): tumor regression
